From patent EP4603105A1, “PHARMACEUTICAL COMPOSITION CONTAINING CYCLIC COMPOUND HAVING SELECTIVE KRAS INHIBITORY EFFECT AGAINST HRAS AND NRAS” (CHUGAI SEIYAKU KABUSHIKI KAISHA, priority 2022, dated 2024)
Where two headings read alike, the source gives them in different places.

Legend:
[1] = molecular target: GDP-bound KRAS wild-type protein (Homo sapiens, UniProt P01116); test: Binding to KRAS by surface plasmon resonance (SPR), dissociation constant KD
Summary of the method: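 GDP-loaded biotinylated Avi-tag RAS proteins (E. coli-expressed) captured on a Biotin CAPture chip at ~100–300 RU; single-cycle kinetics at 30°C, 100 µL/min, 75 s injections of rising compound concentrations. HBS pH 7.4 running buffer with 1 mM DTT, 10 mM MgCl2, 10 µM GDP, 4% DMSO. KD from 1:1 binding fit.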

[2] = molecular target: GDP-bound NRAS wild-type protein (Homo sapiens, UniProt P01111); test: Binding to NRAS by surface plasmon resonance (SPR), KD and KD ratio to KRAS
GDP-bound NRAS wild-type protein, sequence (P01111 whole entry): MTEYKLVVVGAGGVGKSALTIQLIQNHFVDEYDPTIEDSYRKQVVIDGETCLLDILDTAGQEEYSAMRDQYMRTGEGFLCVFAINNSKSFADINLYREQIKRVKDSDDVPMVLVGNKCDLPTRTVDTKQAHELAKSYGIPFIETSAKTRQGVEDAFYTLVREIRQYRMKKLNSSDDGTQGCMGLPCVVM
Summary of the method: (§1)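 SPR, 30°C: Avi-biotin RAS·GDP captured via Biotin CAPture (~100–300 RU); running buffer HBS pH 7.4, 1 mM DTT, 10 mM MgCl2, 0.01% Tween 20, 10 µM GDP, 4% DMSO. Single-cycle kinetics, 100 µL/min, 75 s injections; 1:1 model → KD.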

HRAS wild-type protein = HRAS wild-type protein (Homo sapiens, UniProt P01112); test: Binding to HRAS by surface plasmon resonance (SPR), KD and KD ratio to KRAS
HRAS wild-type protein, sequence (P01112 whole entry): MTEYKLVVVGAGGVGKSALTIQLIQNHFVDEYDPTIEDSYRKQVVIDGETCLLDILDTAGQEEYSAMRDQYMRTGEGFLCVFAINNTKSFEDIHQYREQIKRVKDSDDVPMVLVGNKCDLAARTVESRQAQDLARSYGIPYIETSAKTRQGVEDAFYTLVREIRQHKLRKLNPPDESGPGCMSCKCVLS
Summary of the method: as §1

[3] = test system: human lung cancer strain NCI-H441; test: NCI-H441 cell proliferation inhibitory activity (CellTiter-Glo, 4 days); format: cell-based; conditions: read-out: NCl-H441 IC50
Protocol: A test compound was dispensed into a U-bottom 384-well plate as 40 nL serially diluted dimethyl sulfoxide solutions using a liquid handler Echo (LABCYTE). […] This cell suspension was dispensed in an amount of 40 µL per well into a plate containing the test compound, and cultured at 37°C in a 5% carbon dioxide gas incubator. Four days later, 20 µL of CellTiter-Glo (registered trademark) (Promega) was added to each well and […] was measured. […]

[4] = ratio of KD for GDP-bound NRAS wild-type protein to KD for KRAS
[5] = ratio of KD for HRAS wild-type protein to KD for KRAS
[6] = Single Cycle Kinetics, 1:1 binding model
[7] = ratio of KD with respect to GDP-bound NRAS wild-type protein to KD with respect to KRAS
[8] = ratio of KD with respect to HRAS wild-type protein to KD with respect to KRAS
[9] = 50% proliferation inhibitory concentration, four days

GDP-bound KRAS wild-type protein, sequence (P01116 1-188 isoform P01116-2): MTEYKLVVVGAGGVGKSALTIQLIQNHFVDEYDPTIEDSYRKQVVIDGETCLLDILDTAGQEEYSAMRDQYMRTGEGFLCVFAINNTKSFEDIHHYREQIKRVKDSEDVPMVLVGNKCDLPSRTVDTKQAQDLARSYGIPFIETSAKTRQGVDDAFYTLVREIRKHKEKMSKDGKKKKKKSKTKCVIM

Compound	Kd ([1]; Single Cycle Kinetics) [nM]	NRAS /KRAS [2, 4]	HRAS /KRAS (HRAS wild-type protein; [5])	IC50 ([3]; NCI-H441 cells, 4 days) [nM]	Kd [1, 6] [nM]	NRAS /KRAS [2, 7]	HRAS /KRAS (HRAS wild-type protein; [8])	IC50 [3, 9] [nM]	Kd ([1]; 1:1 binding model) [nM]
CCO[C@@H]1C[C@H]2C(=O)NC3(CCCC3)C(=O)N(C)[C@@H](C3CCC3)C(=O)N(C)[C@H](C(=O)N(C)C)CC(=O)N(C)[C@@H](CC(C)C)C(=O)N[C@@H]([C@@H](C)CC)C(=O)N(C)CC(=O)N(C)[C@H]3C/C(F)=C\CCN(C3=O)[C@@H](Cc3ccc(C)cc3)C(=O)N(C)CC(=O)N[C@@H](CCc3cc(F)c(C(F)(F)F)c(F)c3)C(=O)N2C1 [PP3517]	1.8	B (a compound having 3 or more and less than 10 is denoted as B)	B (a compound having 3 or more and less than 10 is denoted as B)	55.6	–	–	–	–	–
CCO[C@@H]1C[C@H]2C(=O)NC3(CCC3)C(=O)N(C)[C@@H](C3CCCC3)C(=O)N(C)[C@H](C)CC(=O)N(C)[C@@H](CC3CCCC3)C(=O)N[C@@H]([C@@H](C)CC)C(=O)N(C)CC(=O)N(C)[C@H]3C/C=C\CCN(C3=O)[C@@H](Cc3ccc(C)cc3)C(=O)N(C)CC(=O)N[C@@H](CCc3cc(F)c(C(F)(F)F)c(F)c3)C(=O)N2C1 [PP1413]	–	–	–	–	0.42	B (a compound having 3 or more and less than 10 is denoted as B)	B (a compound having 3 or more and less than 10 is denoted as B)	62.5	–
CCC[C@H]1C(=O)N[C@@H]([C@@H](C)CC)C(=O)N(C2CC2)CC(=O)N(C)[C@H]2C/C=C\CCN(C2=O)[C@@H](Cc2ccc(C)cc2)C(=O)N(C)CC(=O)N[C@@H](CCc2cc(F)c(C(F)(F)F)c(F)c2)C(=O)N2C[C@H](OCC)C[C@H]2C(=O)NC2(CC(C)(C)C2)C(=O)N(C)[C@@H](C(CC)CC)C(=O)N(C)[C@H](C(=O)N(C)C)CC(=O)N1C [PP2560]	–	AA (a compound having 20 or more is denoted as AA)	A (a compound having 10 or more and less than 20 is denoted as A)	46.3	–	–	–	–	1
CCCC[C@H]1C(=O)N[C@@H]([C@@H](C)CC)C(=O)N(C)CC(=O)N(C)[C@H]2C/C=C\CCN(C2=O)[C@@H](Cc2ccc(C)cc2)C(=O)N(C)CC(=O)N[C@@H](CCc2ccc(C(F)(F)F)c(OC)c2)C(=O)N2C[C@H](OCC)C[C@H]2C(=O)OC2(CCC2)C(=O)N(C)[C@@H](C2CCCC2)C(=O)N(C)[C@H](C(=O)N(C)C)CC(=O)N1C [PP3385]	0.22	A (a compound having 10 or more and less than 20 is denoted as A)	B (a compound having 3 or more and less than 10 is denoted as B)	8.1	–	–	–	–	–
CCOC[C@H]1C(=O)N[C@@H]([C@@H](C)CC)C(=O)N(C)CC(=O)N(C)[C@H]2C/C=C\CCN(C2=O)[C@@H](CC2CCCCC2)C(=O)N(C)CC(=O)N[C@@H](CCc2ccc(C(F)(F)F)c(OC)c2)C(=O)N2C[C@@H](C)C[C@H]2C(=O)N(C)C2(CCC2)C(=O)N(C)[C@@H](C2CCCC2)C(=O)N(C)[C@H](C(=O)N(C)C)CC(=O)N1C [PP2371]	–	A (a compound having 10 or more and less than 20 is denoted as A)	B (a compound having 3 or more and less than 10 is denoted as B)	41.9	–	–	–	–	0.64
CCC[C@H]1C(=O)N[C@@H]([C@@H](C)CC)C(=O)N(C)CC(=O)N(C)[C@H]2C/C=C\CCN(C2=O)[C@@H](Cc2ccc(C)cc2)C(=O)N(C)CC(=O)N[C@@H](CCc2ccc(C(F)(F)F)c(OC)c2)C(=O)N2CC3(CC3)C[C@H]2C(=O)N(C)C2(CCC2)C(=O)N(C)[C@@H]([C@@H](C)CC)C(=O)N(C)[C@H](C(=O)N(C)C)CC(=O)N1C [PP3294]	0.099	A (a compound having 10 or more and less than 20 is denoted as A)	A (a compound having 10 or more and less than 20 is denoted as A)	3.4	–	–	–	–	–
CCO[C@@H]1C[C@H]2C(=O)NC3(CCC3)C(=O)N(C)[C@@H](C3CCCC3)C(=O)N(C)[C@H](C(=O)N(C)C)CC(=O)N(C)[C@@H](CSC)C(=O)N[C@@H]([C@@H](C)CC)C(=O)N(C)CC(=O)N(C)[C@H]3C/C=C\CCN(C3=O)[C@@H](CC3CCCCC3)C(=O)N(C)CC(=O)N[C@@H](CCc3cc(F)c(C(F)(F)F)c(F)c3)C(=O)N2C1 [PP1463]	–	–	–	–	0.13	A (a compound having 10 or more and less than 20 is denoted as A)	A (a compound having 10 or more and less than 20 is denoted as A)	44.5	–
CCOC[C@H]1C(=O)N[C@@H]([C@@H](C)CC)C(=O)N(C)CC(=O)N(C)[C@H]2C/C=C\CCN(C2=O)[C@@H](Cc2ccc(C)cc2)C(=O)N(C)CC(=O)N[C@@H](CCc2ccc(C(F)(F)F)c(OC)c2)C(=O)N2C[C@H](C)C[C@H]2C(=O)NC2(CC(C)(C)C2)C(=O)N(C)[C@@H](C2CCCC2)C(=O)N(C)[C@H](C(=O)N(C)C)CC(=O)N1C [PP2393]	–	A (a compound having 10 or more and less than 20 is denoted as A)	A (a compound having 10 or more and less than 20 is denoted as A)	28.2	–	–	–	–	0.12
CCC[C@H]1C(=O)N[C@@H]([C@@H](C)CC)C(=O)N(C)CC(=O)N(C)[C@H]2C/C=C\CCN(C2=O)[C@@H](Cc2ccc(C(F)(F)F)cc2)C(=O)N(C)CC(=O)N[C@@H](CCc2ccc3sccc3c2)C(=O)N2C[C@H](OCC)C[C@H]2C(=O)NC2(CCC2)C(=O)N(C)[C@@H](C2CCCC2)C(=O)N(C)[C@H](C(=O)N(C)C)CC(=O)N1C [PP1256]	–	–	–	–	0.36	A (a compound having 10 or more and less than 20 is denoted as A)	A (a compound having 10 or more and less than 20 is denoted as A)	69	–
CCO[C@@H]1C[C@H]2C(=O)NC3(CCC3)C(=O)N(C)[C@@H](C3CCCC3)C(=O)N(C)[C@H](C(=O)N3CCOCC3)CC(=O)N(C)[C@@H](CC)C(=O)N[C@@H]([C@@H](C)CC)C(=O)N(C)CC(=O)N(C)[C@H]3CC[C@@H](C)CN(C3=O)[C@@H](Cc3ccc(C(F)(F)F)cc3)C(=O)N(C)CC(=O)N[C@@H](CCc3ccc(C(F)(F)F)c(Cl)c3)C(=O)N2C1 [PP1378]	–	–	–	–	0.081	B (a compound having 3 or more and less than 10 is denoted as B)	C (A compound having a KD ratio of 0.1 or more and less than 3 is denoted as C)	6.6	–
CCC[C@H]1C(=O)N[C@@H](C23CC(C2)C3)C(=O)N2CCC[C@H]2C(=O)N(C)[C@H]2C/C=C\CCN(C2=O)[C@@H](Cc2ccc(C(F)(F)F)cc2)C(=O)N(C)CC(=O)N[C@@H](CCc2ccc(C(F)(F)F)c(OC)c2)C(=O)N2C[C@H](OCC)C[C@H]2C(=O)N(C)C2(CCC2)C(=O)N(C)[C@@H](C2CCCC2)C(=O)N(C)[C@H](C(=O)N(C)C)CC(=O)N1C [PP3343]	2.4	A (a compound having 10 or more and less than 20 is denoted as A)	A (a compound having 10 or more and less than 20 is denoted as A)	29.3	–	–	–	–	–
CCC[C@H]1C(=O)N[C@@H](CC(C)C)C(=O)N2C[C@@H](OC)C[C@H]2C(=O)N(C)[C@H]2C/C=C\CCN(C2=O)[C@@H](Cc2ccc(C)cc2)C(=O)N(C)CC(=O)N[C@@H](CCc2ccc(C(F)(F)F)c(Cl)c2)C(=O)N2C[C@H](OCC)C[C@H]2C(=O)NC2(CC(C)(C)C2)C(=O)N(C)[C@@H](C2CCCC2)C(=O)N(C)[C@H](C(=O)N(C)C)CC(=O)N1C [PP2555]	–	A (a compound having 10 or more and less than 20 is denoted as A)	B (a compound having 3 or more and less than 10 is denoted as B)	212	–	–	–	–	4.1
